Results reported in patent US10787456B2 (priority 2018, dated 2020).
Converted amounts (≈) assume the structure as drawn. Read-outs that look alike come from different tables or passages of the source.

Legend:
H1 receptor = H1 receptor (Homo sapiens, UniProt P35367); experiment: CNS receptor inhibition, H1 receptor; format: binding
Method: (§1) In an illustrative embodiment of the present invention, gliotoxin and Formula 1b, were evaluated for activity of various receptors. Turning to Table 1, inhibitory data is provided for various receptors found in the CNS, including H1 and opioid receptors μ (MOR), […], and κ (KOR). Inhibition data is provided as inhibitor constant, Ki, is the concentration required to produce half-maximum inhibition. This quantitative measure indicates how much of a particular drug or other substance (inhibitor) is needed to inhibit a given biological process (or component of a process, i.e. an enzyme, cell, cell receptor or microorganism) by half. The values are typically expressed as molar (micro- and nano-) concentrations.

MDA-MB-231 = experiment: Cytotoxicity in cancer cell line MDA-MB-231; format: cell-based
Description: (§2) Further cytotoxicity studies show potential for efficacy as […]. Table 2, below, provides IC50 data relating to both a cancer cell line and E. coli minimum inhibitory concentration (MIC).

E. Coli = experiment: E. coli minimum inhibitory concentration; format: cell-based
Description: as §2

HUVEC cells = experiment: Angiogenesis study, tube formation in HUVEC; format: cell-based; settings: 100 nM of drug treatment
Method: Angiogenesis studies were performed using HUVEC cells (see FIGS. 6A-6C). Tube formation in HUVEC in presence of 100 nM of drug treatment.

CNS Receptor = CNS Receptor binding (profile)
Method: as §1

μ (MOR) opioid receptor = μ (MOR) opioid receptor (Homo sapiens, UniProt P35372); experiment: CNS receptor inhibition, Mu opioid receptor; format: binding
Chain of μ (MOR) opioid receptor (P35372 whole entry): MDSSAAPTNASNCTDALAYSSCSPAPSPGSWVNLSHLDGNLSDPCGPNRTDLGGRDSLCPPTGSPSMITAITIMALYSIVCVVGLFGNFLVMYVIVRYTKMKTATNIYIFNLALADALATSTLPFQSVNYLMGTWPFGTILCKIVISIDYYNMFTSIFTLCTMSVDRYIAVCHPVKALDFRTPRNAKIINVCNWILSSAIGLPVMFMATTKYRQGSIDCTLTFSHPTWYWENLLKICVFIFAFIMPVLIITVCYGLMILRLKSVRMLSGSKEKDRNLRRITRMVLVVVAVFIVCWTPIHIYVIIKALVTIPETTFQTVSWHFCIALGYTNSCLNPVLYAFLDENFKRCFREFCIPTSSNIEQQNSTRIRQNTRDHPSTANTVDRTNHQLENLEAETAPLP
Method: as §1

σ (DOR) opioid receptor = σ (DOR) opioid receptor (Homo sapiens, UniProt P41143); experiment: CNS receptor inhibition, Delta opioid receptor; format: binding
Chain of σ (DOR) opioid receptor (P41143 whole entry): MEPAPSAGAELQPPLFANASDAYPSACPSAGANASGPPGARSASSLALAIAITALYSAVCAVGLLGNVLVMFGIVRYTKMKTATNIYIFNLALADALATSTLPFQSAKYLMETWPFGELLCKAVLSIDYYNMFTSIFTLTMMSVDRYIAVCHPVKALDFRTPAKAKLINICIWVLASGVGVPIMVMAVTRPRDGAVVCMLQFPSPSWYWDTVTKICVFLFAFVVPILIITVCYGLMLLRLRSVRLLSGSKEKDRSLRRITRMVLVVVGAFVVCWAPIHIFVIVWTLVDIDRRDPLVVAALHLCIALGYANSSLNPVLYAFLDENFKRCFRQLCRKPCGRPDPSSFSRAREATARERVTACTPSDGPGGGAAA
Method: as §1

κ (KOR) opioid receptor = κ (KOR) opioid receptor (Homo sapiens, UniProt P41145); experiment: CNS receptor inhibition, Kappa opioid receptor; format: binding
Chain of κ (KOR) opioid receptor (P41145 whole entry): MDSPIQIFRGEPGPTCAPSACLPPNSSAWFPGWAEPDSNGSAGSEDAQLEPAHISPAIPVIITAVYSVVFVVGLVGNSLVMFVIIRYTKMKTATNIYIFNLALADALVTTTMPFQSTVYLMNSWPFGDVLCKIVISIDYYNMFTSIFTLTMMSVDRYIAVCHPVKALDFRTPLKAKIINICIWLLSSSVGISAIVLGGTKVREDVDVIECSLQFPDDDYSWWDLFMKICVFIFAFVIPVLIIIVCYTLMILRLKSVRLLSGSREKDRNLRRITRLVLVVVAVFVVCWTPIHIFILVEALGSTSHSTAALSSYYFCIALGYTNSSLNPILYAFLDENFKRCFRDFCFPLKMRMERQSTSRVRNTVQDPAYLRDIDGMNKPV
Method: as §1

bEnd.3 cells = experiment: Blood-brain barrier membrane permeability in in-vitro monolayer of bEnd.3 cells; format: in vitro ADME; settings: in 30 minutes
Description: FIG. 4 provides permeability data for the blood-brain barrier (BBB) of various compounds, including gliotoxin and Formula 1b. Membrane permeability increases linearly as a function of time.

Chain of H1 receptor (P35367 whole entry): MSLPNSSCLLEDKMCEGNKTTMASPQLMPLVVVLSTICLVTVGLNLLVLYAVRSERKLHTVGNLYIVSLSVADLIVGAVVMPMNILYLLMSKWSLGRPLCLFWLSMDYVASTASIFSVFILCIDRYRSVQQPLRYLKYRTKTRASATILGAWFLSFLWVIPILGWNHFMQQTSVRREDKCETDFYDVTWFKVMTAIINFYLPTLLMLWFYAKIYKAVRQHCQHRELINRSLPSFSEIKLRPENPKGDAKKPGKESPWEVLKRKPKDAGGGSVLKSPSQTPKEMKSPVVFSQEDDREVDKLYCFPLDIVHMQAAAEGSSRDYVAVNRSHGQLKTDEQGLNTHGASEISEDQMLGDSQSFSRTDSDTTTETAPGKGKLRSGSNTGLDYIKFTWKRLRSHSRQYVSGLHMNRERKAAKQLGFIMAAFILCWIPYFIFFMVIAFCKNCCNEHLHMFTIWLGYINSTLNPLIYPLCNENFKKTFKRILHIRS

Structure (SMILES)	CNS activity, inhibition of the H1 receptor (FIG. 7) (H1 receptor)	Inhibition (%) (H1 receptor; H1)	IC50 (MDA-MB-231; Homo sapiens) [nM]	MIC (E. Coli; Escherichia coli) [µg/mL]	Inhibition of tube formation (HUVEC cells)	CNS Receptor binding (CNS Receptor)	Inhibition (%) (μ (MOR) opioid receptor)	Inhibition (%) (σ (DOR) opioid receptor)	Inhibition (%) (κ (KOR) opioid receptor)	IC50 (MDA-MB-231) [nM]	E. Coli MIC (E. Coli)	ability to cross the BBB (bEnd.3 cells) [%]
CN1C(=O)[C@]23CC4=CC=C[C@H](O)[C@H]4N2C(=O)[C@@]1(CO)SS3 [Gliotoxin, reference compound]	partial inhibition	61	1400	32 (≈ 98 µM)	Inhibition of tube formation was observed	H1 Receptor Antagonist	–	–	–	–	–	–
CCc1cccc2c1N1C(=O)CC(C)C(=O)C1C2 (stereo not drawn) [Formula 1b, 4-ethyl-8-methyl-7,8,9a,10-tetrahydropyrido[1,2-α]indole-6,9-dione]	–	–	–	–	no inhibition was observed	Opioid Antagonist	97.8	97.4	99.3	> 100000	Not Active	80
